# Assay results from US10730885B1, “Coumarin derivatives” (KING SAUD UNIVERSITY, priority 2019, dated 2020).
# Where two headings read alike, the source gives them in different places.
# How the values were obtained:
# trypsin = test: Proteinase inhibitory activity (trypsin/casein); assay type: biochemical; details: for % Inhibition of proteinase activity: 250 μg/ml, mean ± SD (n = 3)
# Description: For proteinase inhibitory activity, the reaction mixture (2 ml) contained 0.06 mg trypsin, 20 mM Tris HCl buffer (pH 7.4) and 1 ml test sample (250 μg/ml for each compound). The mixture was incubated for 5 min and then 1 ml of 0.8% (w/v) casein was added. The mixture was incubated for an additional 20 min. 1 ml of 10% perchloric acid was added to arrest the reaction. The cloudy suspension was centrifuged, and the absorbance of the supernatant was read at 280 nm. Reference standard compound aspirin was used as the positive control for this assay. The experiment was performed in triplicate. Percentage inhibition of […] was calculated by using the following formula:
# [formula] where Acontrol is the absorbance of the control reaction and Atest is the absorbance of the control reaction with sample.
# [1] = DPPH microplate radical scavenging antioxidant assay; assay type: biochemical; details: for IC50: DPPH, 30 min, mean ± SD (n = 3); for antioxidant activity: overview
# Description: The antioxidant activity of the synthesized compounds was measured in terms of hydrogen-donating or radical scavenging ability using the DPPH microplate-based method. Absorbance measurement was obtained using Microplate/cuvette reader (Spectramax M5, Molecular Devices, California, USA). Reference standard compound ascorbic acid was used as the positive control for this assay at concentrations ranging from 1.563 to 200 μg/mL. Test samples were prepared at a starting concentration of 200 μg/mL after mixing with 100 μl of 0.2 mM DPPH methanolic solution. A series of concentrations were tested for the samples in order to determine the 50% inhibitory concentration (IC50). Samples were incubated with DPPH in the dark for 30 min at room temperature (25° C.). The DPPH solution in methanol was prepared daily and stored in a flask covered with aluminum foil. DPPH radicals have an absorption maximum (λmax) at 515 nm, in which the absorbance values were measured and converted into percentage of antioxidant activity.
# Methanolic DPPH solution without antioxidant was applied as control and background control was samples in methanol only. IC50 was determined using Graphpad Prism 7 (Graphpad Software Inc. CA, USA). The percentage inhibition was calculated by using the formula:
# The assay was carried out in triplicate and performed as much as possible in an area protected against light. The data points are presented as the mean±standard deviation (SD) (n=3).
# [2] = tested on: Bacillus megaterium ATCC 9885; test: Agar well diffusion, primary antimicrobial screening; assay type: cell-based; details: Priestia megaterium, ATCC9885; B. megaterium ATCC 9885; 100 μL of 10 mg/ml in DMSO, 24 h; read-out: Inhibition Diameter Zone BM
# Source text: (§1) The newly synthesized compounds were individually tested for their in vitro antimicrobial activity against the standard bacteria strains of American Type Culture Collection (ATCC), namely, Staphylococcus aureus ATCC 29213, Bacillus subtilis ATCC 6633, Bacillus megaterium ATCC 9885 (Gram-positive), Escherichia coli ATCC 2592 and Pseudomonas aeruginosa ATCC 27953 (Gram-negative). In addition, they were microbiologically tested against the locally isolated Saccharomyces cerevisiae (yeast) and the standard strain of Agricultural Research Service Culture Collection (NRRL) of the yeast like pathogenic fungus Candida albicans NRRL Y-477. The primary screening was carried out using the agar well diffusion method using nutrient agar (NA) medium and Sabourand dextrose agar (SDA) medium for pathological tested bacteria and yeast, respectively.
# (§2) Antimicrobial tests were carried out by the agar well diffusion method using 100 μL of suspension containing 1×10^8 CFU/mL of pathological tested bacteria and 1×10^6 CFU/ml of yeast spread on NA and SDA, respectively. After the media was cooled and solidified, wells (10 mm in diameter) were made in the solidified agar and loaded with 100 μL of tested compound solution prepared by dissolving 10 mg of the chemical compound in one ml of dimethyl sulfoxide (DMSO). The inculcated plates were then incubated for 24 h at 37° C. for bacteria and yeast. Negative controls were prepared using DMSO employed for dissolving the tested compound. Ciprofloxacin (10 mg/ml) and ketoconazole (10 mg/ml) were used as standard for antibacterial and antifungal activity, respectively. After incubation time, antimicrobial activity was evaluated by measuring the zone of inhibition against the test organisms and compared with that of the standard. Antimicrobial activities were expressed as inhibition diameter zones in millimeters (mm). The experiment was carried out in triplicate and the average zone of inhibition was calculated.
# [3] = tested on: Bacillus subtilis ATCC 6633; test: as above; assay type: cell-based; details: for zone of inhibition at 10000 µg/mL: Bacillus subtilis, ATCC6633, B. subtilis ATCC 6633, 100 μL of 10 mg/ml in DMSO, 24 h, read-out: Inhibition Diameter Zone BS; for antibacterial activity compared with reference drug: B. subtilis
# Source text: as §1, §2
# [4] = tested on: Candida albicans NRRL Y-477; test: as above; assay type: cell-based; details: for zone of inhibition at 10000 µg/mL: Candida albicans, NRRLY477, C. albicans NRRL Y-477, 100 μL of 10 mg/ml in DMSO, 24 h, read-out: Inhibition Diameter Zone CA; for antifungal activity compared with reference drug: C. albicans
# Source text: as §1, §2
# [5] = tested on: Saccharomyces cerevisiae (local isolate); test: as above; assay type: cell-based; details: for zone of inhibition at 10000 µg/mL: Saccharomyces cerevisiae, 24 h, read-out: Inhibition Diameter Zone SC
# Source text: as §1, §2
# [6] = tested on: Staphylococcus aureus ATCC 29213; test: as above; assay type: cell-based; details: S. aureus
# Source text: as §1, §2
# tested microorganisms = test: Agar well diffusion, summary over the tested microorganisms; assay type: cell-based; details: against one or more microorganisms
# Source text: as §1, §2
# [7] = tested on: Escherichia coli ATCC 2592; test: Agar well diffusion, primary antimicrobial screening; assay type: cell-based; details: E. coli
# Source text: as §1, §2
# [8] = S. cerevisiae local isolate, 100 μL of 10 mg/ml in DMSO
SMILES,melting point,IC50 [1],% Inhibition of proteinase activity (trypsin),further results
"Cc1ccc2oc(=O)c3c(c2c1)OC(N)=C(C(N)=O)C3c1ccco1 (racemic) [Compound 6b, (±)-2-amino-4-(furan-2-yl)-9-methyl-5-oxo-4H,5H-pyrano[3,2-c]chromene-3-carboxamide]",202 to 204 °C,48.38 ± 4.61 µg/mL,–,in vitro anti-proteinase activity compared with aspirin (trypsin): more potent; % Inhibition of proteinase activity (trypsin; listed as 6h): 49.28 ± 10.93%; zone of inhibition at 10000 µg/mL [2]: < 15 mm; zone of inhibition at 10000 µg/mL [3]: < 15 mm
"Cc1ccc2oc(=O)c3c(c2c1)OC(N=CN(C)C)=C(C#N)C3c1ccco1 (racemic) [Compound 7b, (±)-N′-(3-cyano-4-(furan-2-yl)-9-methyl-5-oxo-4H,5H-pyrano[3,2-c]chromen-2-yl)-N,N-dimethylformimidamide]",273 to 275 °C,— ((—): inactive (IC50 > 200 μg/mL)),33.17 ± 2.79%,zone of inhibition at 10000 µg/mL [4]: < 15 mm; zone of inhibition at 10000 µg/mL [2]: < 15 mm; zone of inhibition at 10000 µg/mL [3]: < 15 mm; zone of inhibition at 10000 µg/mL [5]: < 15 mm
"Cc1ccc2oc(=O)c3c(c2c1)OC(N=Cc1ccccc1)=C(C#N)C3c1ccco1 (racemic) [Compound 8b, (±)-2-(benzylideneamino)-4-(furan-2-yl)-9-methyl-5-oxo-4H,5H-pyrano[3,2-c]chromene-3-carbonitrile]",250 to 252 °C,–,–,–
"O=C1O[C@H]([C@@H](O)CO)C(O)=C1O [Ascorbic acid, ascorbic acid, reference compound]",–,2.83 ± 0.166 µg/mL,–,–
"CC(=O)Oc1ccccc1C(=O)O [Aspirin, aspirin, reference compound]",–,–,45.83 ± 4.21%,–
"O=C(O)c1cn(C2CC2)c2cc(N3CCNCC3)c(F)cc2c1=O [Ciprofloxacin, reference compound]",–,–,–,"zone of inhibition at 10000 µg/mL [4]: < 15 mm; zone of inhibition at 10000 µg/mL [5, 8]: < 15 mm"
"NS(=O)(=O)c1ccc(NS(=O)(=O)c2c(O)c3cc(Cl)ccc3oc2=O)cc1 [Compound 10a, 6-Chloro-4-hydroxy-2-oxo-N-(4-sulfamoylphenyl)-2H-chromene-3-sulfonamide]",245 to 247 °C,93.12 ± 0.727 µg/mL,18.78 ± 2.05%,antibacterial activity compared with ciprofloxacin [6]: equal to ciprofloxacin; antibacterial activity compared with reference drug [3]: comparable antibacterial activities to the standard; antimicrobial activity compared with standard antimicrobials (ciprofloxacin and ketoconazole) (tested microorganisms): equal to or higher than the standard antimicrobials
"O=c1oc2ccc(Cl)cc2c(O)c1S(=O)(=O)Nc1ccc(S(=O)(=O)Nc2nccs2)cc1 [Compound 10e, 6-chloro-4-hydroxy-2-oxo-N-(4-(N-(thiazol-2-yl)sulfamoyl)phenyl)-2H-chromene-3-sulfonamide]",215 to 217 °C,71.67 ± 3.231 µg/mL,–,–
"O=c1oc2ccc(Cl)cc2c(O)c1S(=O)(=O)Nc1ccccc1 [Compound 11a, 6-Chloro-4-hydroxy-2-oxo-N-phenyl-2H-chromene-3-sulfonamide]",337 to 339 °C,14.51 ± 1.827 µg/mL,44.7 ± 8.22%,in vitro anti-proteinase activity compared with aspirin (trypsin): as potent; antioxidant activity [1]: particularly high antioxidant activity; antifungal activity compared with reference drug [4]: higher antifungal activity; antimicrobial activity compared with standard antimicrobials (ciprofloxacin and ketoconazole) (tested microorganisms): equal to or higher than the standard antimicrobials
"Cc1ccc2oc(=O)c(S(=O)(=O)Nc3ccccc3)c(O)c2c1 [Compound 11b, 4-Hydroxy-6-methyl-2-oxo-N-phenyl-2H-chromene-3-sulfonamide]",324 to 325 °C,19.25 ± 4.171 µg/mL,14.3 ± 2.21%,antioxidant activity [1]: particularly high antioxidant activity
"Cc1ccc2oc(=O)c(S(=O)(=O)Nc3ccc(C(=O)/C=C/c4ccc([N+](=O)[O-])cc4)cc3)c(O)c2c1 [Compound 12b, (E)-4-hydroxy-6-methyl-N-(4-(3-(4-nitrophenyl)acryloyl)phenyl)-2-oxo-2H-chromene-3-sulfonamide]",220 to 222 °C,— ((—): inactive (IC50 > 200 μg/mL)),–,–
"Cc1ccc2oc(=O)c(S(=O)(=O)Nc3ccc(C(=O)/C=C/c4ccc(Cl)cc4)cc3)c(O)c2c1 [Compound 12d, (E)-N-(4-(3-(4-chlorophenyl)acryloyl)phenyl)-4-hydroxy-6-methyl-2-oxo-2H-chromene-3-sulfonamide]",141 to 143 °C,— ((—): inactive (IC50 > 200 μg/mL)),31.88 ± 3.82%,"antibacterial activity compared with ciprofloxacin [6]: equal to ciprofloxacin; antifungal activity compared with reference drug [4]: higher antifungal activity; antibacterial activity compared with reference drug [3]: comparable antibacterial activities to the standard; antibacterial activity compared with ciprofloxacin [7]: higher antibacterial activity than ciprofloxacin; antimicrobial activity compared with ketoconazole ([5]; S. cerevisiae): higher than that of the corresponding control drug; zone of inhibition at 10000 µg/mL [5, 8]: 32 mm; antimicrobial activity compared with standard antimicrobials (ciprofloxacin and ketoconazole) (tested microorganisms): equal to or higher than the standard antimicrobials"
"COc1ccc(/C=C/C(=O)c2ccc(NS(=O)(=O)c3c(O)c4cc(Cl)ccc4oc3=O)cc2)cc1 [Compound 12e, (E)-6-chloro-4-hydroxy-N-(4-(3-(4-methoxyphenyl)acryloyl)phenyl)-2-oxo-2H-chromene-3-sulfonamide]",> 300 °C,— ((—): inactive (IC50 > 200 μg/mL)),22.83 ± 4.88%,–
"COc1ccc(/C=C/C(=O)c2ccc(NS(=O)(=O)c3c(O)c4cc(C)ccc4oc3=O)cc2)cc1 [Compound 12f, (E)-4-hydroxy-N-(4-(3-(4-methoxyphenyl)acryloyl)phenyl)-6-methyl-2-oxo-2H-chromene-3-sulfonamide]",> 300 °C,— ((—): inactive (IC50 > 200 μg/mL)),21.7 ± 7.6%,–
